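Method: 48-hour compound exposure of cells in 96-well plates, five concentrations, linear interpolation of endpoints. Abbreviation: GI50, concentration required for 50% inhibition of growth.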 The source made the active and inactive calls. Rule as the data show it: active = GI50 up to about 1.1 µM and inactive = higher.
What was measured:
Experiment in all cases: NCI-60 cell line screen, 48 h
SK-OV-3 = system: SK-OV-3
SNB-19 = system: SNB-19
NCI-H460 = system: NCI-H460
SF-539 = system: SF-539
UACC-257 = system: UACC-257
HOP-92 = system: HOP-92
MOLT-4 = system: MOLT-4
ACHN = system: ACHN
OVCAR-5 = system: OVCAR-5
CCRF-CEM = system: CCRF-CEM
HOP-62 = system: HOP-62
K562 = system: K562
NCI/ADR-RES = system: NCI/ADR-RES
MDA-N = system: MDA-N
Hs-578T = system: Hs-578T
UO-31 = system: UO-31
LOX IMVI = system: LOX IMVI
COLO 205 = system: COLO 205
SK-MEL-5 = system: SK-MEL-5
U-251 = system: U-251

O=C(Nc1ccc(Cl)cc1Cl)C1C(=O)OC2(CCCCC2)OC1=O
GI50 (SK-OV-3): 10.6 µM (inactive) | GI50 (SNB-19): 5.26 µM (inactive) | GI50 (NCI-H460): 8.99 µM (inactive) | GI50 (SF-539): 9.66 µM (inactive) | GI50 (UACC-257): 12.1 µM (inactive) | GI50 (HOP-92): 6.82 µM (inactive) | GI50 (MOLT-4): 5.15 µM (inactive) | GI50 (ACHN): 6.07 µM (inactive) | GI50 (OVCAR-5): 9.12 µM (inactive) | GI50 (CCRF-CEM): 4.24 µM (inactive) | GI50 (HOP-62): 4.38 µM (inactive) | GI50 (K562): 4.72 µM (inactive) | GI50 (NCI/ADR-RES): 4.93 µM (inactive) | GI50 (MDA-N): 15.7 µM (inactive) | GI50 (Hs-578T): 10.8 µM (inactive) | GI50 (UO-31): 2.94 µM (inactive) | GI50 (LOX IMVI): 6.22 µM (inactive) | GI50 (COLO 205): 10.4 µM (inactive) | GI50 (SK-MEL-5): 2.17 µM (inactive) | GI50 (U-251): 5.32 µM (inactive)

O=C(O)C(Cc1c[nH]c2ccccc12)C(=O)NO (stereo not given)
GI50 (SK-OV-3): > 100 µM (inactive) | GI50 (SNB-19): > 100 µM (inactive) | GI50 (NCI-H460): > 100 µM (inactive) | GI50 (SF-539): > 100 µM (inactive) | GI50 (UACC-257): > 100 µM (inactive) | GI50 (HOP-92): > 100 µM (inactive) | GI50 (MOLT-4): > 100 µM (inactive) | GI50 (ACHN): > 100 µM (inactive) | GI50 (OVCAR-5): > 100 µM (inactive) | GI50 (CCRF-CEM): 39.8 µM (inactive) | GI50 (HOP-62): > 100 µM (inactive) | GI50 (K562): > 100 µM (inactive) | GI50 (NCI/ADR-RES): > 100 µM (inactive) | GI50 (MDA-N): > 100 µM (inactive) | GI50 (Hs-578T): > 100 µM (inactive) | GI50 (UO-31): > 100 µM (inactive) | GI50 (LOX IMVI): > 100 µM (inactive) | GI50 (COLO 205): > 100 µM (inactive) | GI50 (SK-MEL-5): > 100 µM (inactive) | GI50 (U-251): 49.8 µM (inactive)

O=C1Nc2ccccc2/C1=C1/Nc2ccccc2/C1=N\OCCOC1OCC(O)C(O)C1O (stereo not given)
GI50 (SK-OV-3): 1.68 µM (inactive) | GI50 (SNB-19): > 100 µM (inactive) | GI50 (NCI-H460): > 100 µM (inactive) | GI50 (SF-539): > 100 µM (inactive) | GI50 (UACC-257): > 100 µM (inactive) | GI50 (HOP-92): > 100 µM (inactive) | GI50 (MOLT-4): 85.7 µM (inactive) | GI50 (ACHN): > 100 µM (inactive) | GI50 (OVCAR-5): > 100 µM (inactive) | GI50 (CCRF-CEM): > 100 µM (inactive) | GI50 (HOP-62): 6.38 µM (inactive) | GI50 (K562): > 100 µM (inactive) | GI50 (NCI/ADR-RES): > 100 µM (inactive) | GI50 (MDA-N): > 100 µM (inactive) | GI50 (Hs-578T): > 100 µM (inactive) | GI50 (UO-31): > 100 µM (inactive) | GI50 (LOX IMVI): 8.59 µM (inactive) | GI50 (COLO 205): 31 µM (inactive) | GI50 (SK-MEL-5): 17.9 µM (inactive) | GI50 (U-251): > 100 µM (inactive)

COc1ccc2cc(CNCCOCCOCCNCc3ccc4cc(OC)ccc4c3)ccc2c1
GI50 (SK-OV-3): 1.79 µM (inactive) | GI50 (SNB-19): 1.49 µM (inactive) | GI50 (NCI-H460): 0.655 µM (active) | GI50 (SF-539): 1.54 µM (inactive) | GI50 (UACC-257): 1.58 µM (inactive) | GI50 (HOP-92): 0.593 µM (active) | GI50 (MOLT-4): 0.402 µM (active) | GI50 (ACHN): 1.6 µM (inactive) | GI50 (OVCAR-5): 1.85 µM (inactive) | GI50 (CCRF-CEM): 0.341 µM (active) | GI50 (HOP-62): 1.69 µM (inactive) | GI50 (K562): 0.118 µM (active) | GI50 (NCI/ADR-RES): 1.48 µM (inactive) | GI50 (MDA-N): 0.889 µM (active) | GI50 (Hs-578T): 1.64 µM (inactive) | GI50 (UO-31): 1.32 µM (inactive) | GI50 (LOX IMVI): 0.467 µM (active) | GI50 (COLO 205): 0.162 µM (active) | GI50 (SK-MEL-5): 0.675 µM (active) | GI50 (U-251): 1.31 µM (inactive)

COC(=O)c1ccccc1C1CN=NC12Cc1cc3c(cc1C2=O)CCC3 (stereo not given)
GI50 (SK-OV-3): 86.9 µM (inactive) | GI50 (SNB-19): 57.5 µM (inactive) | GI50 (NCI-H460): 39.9 µM (inactive) | GI50 (SF-539): > 100 µM (inactive) | GI50 (UACC-257): 40.6 µM (inactive) | GI50 (HOP-92): 30.7 µM (inactive) | GI50 (MOLT-4): 35.5 µM (inactive) | GI50 (ACHN): > 100 µM (inactive) | GI50 (OVCAR-5): > 100 µM (inactive) | GI50 (CCRF-CEM): 29.2 µM (inactive) | GI50 (HOP-62): > 100 µM (inactive) | GI50 (K562): 30.3 µM (inactive) | GI50 (NCI/ADR-RES): 37.8 µM (inactive) | GI50 (MDA-N): 40.7 µM (inactive) | GI50 (Hs-578T): > 100 µM (inactive) | GI50 (UO-31): 50.5 µM (inactive) | GI50 (LOX IMVI): 26.9 µM (inactive) | GI50 (COLO 205): 41.9 µM (inactive) | GI50 (SK-MEL-5): 21.6 µM (inactive) | GI50 (U-251): 70.3 µM (inactive)

Source: ChEMBL document CHEMBL1201862, “PubChem BioAssay data set” (2004)
